Results: PubChem BioAssay (NCI)
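Results reflect a 48-hour exposure of cells in 96-well plates to compound at five concentrations. At the GI50, growth is halved. Definition used: TGI = concentration required for complete inhibition of growth.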

How the values were obtained:
Assay in all cases: DTP human tumour cell line panel, 48 h
HCT-116 colon = system: HCT-116 colon
DU-145 prostate = system: DU-145 prostate
NCI/ADR-RES ovarian = system: NCI/ADR-RES ovarian
MOLT-4 leukemia = system: MOLT-4 leukemia
PC-3 prostate = system: PC-3 prostate
IGROV1 ovarian = system: IGROV1 ovarian
SW-620 colon = system: SW-620 colon
OVCAR-5 ovarian = system: OVCAR-5 ovarian
K-562 leukemia = system: K-562 leukemia
CAKI-1 renal = system: CAKI-1 renal
A549 NSCLC = system: A549 NSCLC
NCI-H460 lung = system: NCI-H460 lung
SK-MEL-5 melanoma = system: SK-MEL-5 melanoma
U251 CNS = system: U251 CNS
NCI-H522 lung = system: NCI-H522 lung
HT29 colon = system: HT29 colon
NCI-H23 lung = system: NCI-H23 lung
ACHN renal = system: ACHN renal
KM12 colon = system: KM12 colon
NCI-H226 lung = system: NCI-H226 lung
UACC-62 melanoma = system: UACC-62 melanoma
HCT-15 colon = system: HCT-15 colon
MALME-3M melanoma = system: MALME-3M melanoma
TK-10 renal = system: TK-10 renal
MDA-MB-435 = system: MDA-MB-435
M14 melanoma = system: M14 melanoma
HCC-2998 colon = system: HCC-2998 colon
MDA-MB-231 breast = system: MDA-MB-231 breast
SNB-19 CNS = system: SNB-19 CNS
SK-MEL-2 melanoma = system: SK-MEL-2 melanoma
HOP-92 NSCLC = system: HOP-92 NSCLC
UACC-257 melanoma = system: UACC-257 melanoma
MCF7 breast = system: MCF7 breast
BT-549 breast = system: BT-549 breast
SF-268 CNS = system: SF-268 CNS
786-0 renal = system: 786-0 renal
RXF 393 renal = system: RXF 393 renal
MDA-N = system: MDA-N
COLO 205 colon = system: COLO 205 colon
EKVX NSCLC = system: EKVX NSCLC
SK-MEL-28 melanoma = system: SK-MEL-28 melanoma
A498 renal = system: A498 renal
RPMI-8226 leukemia = system: RPMI-8226 leukemia
SN12C renal = system: SN12C renal
OVCAR-4 ovarian = system: OVCAR-4 ovarian
UO-31 renal = system: UO-31 renal
LOX IMVI melanoma = system: LOX IMVI melanoma
SR leukemia = system: SR leukemia
HL-60(TB) leukemia = system: HL-60(TB) leukemia
SF-295 CNS = system: SF-295 CNS
CCRF-CEM leukemia = system: CCRF-CEM leukemia
HS 578T breast = system: HS 578T breast
OVCAR-3 ovarian = system: OVCAR-3 ovarian
T-47D breast = system: T-47D breast
OVCAR-8 ovarian = system: OVCAR-8 ovarian
SNB-75 CNS = system: SNB-75 CNS
SK-OV-3 ovarian = system: SK-OV-3 ovarian
SF-539 CNS = system: SF-539 CNS
HOP-62 NSCLC = system: HOP-62 NSCLC

Nn1c(CCCCCCCCc2nnc(COc3ccc(Cl)cc3Cl)n2N)nnc1COc1ccc(Cl)cc1Cl
TGI (HCT-116 colon): 86.8 µM
TGI (DU-145 prostate): > 100 µM
TGI (NCI/ADR-RES ovarian): > 100 µM
TGI (MOLT-4 leukemia): > 100 µM
TGI (PC-3 prostate): > 100 µM
TGI (IGROV1 ovarian): 66 µM
TGI (SW-620 colon): > 100 µM
TGI (OVCAR-5 ovarian): > 100 µM
TGI (K-562 leukemia): > 100 µM
TGI (CAKI-1 renal): > 100 µM
TGI (A549 NSCLC): > 100 µM
TGI (NCI-H460 lung): > 100 µM
TGI (SK-MEL-5 melanoma): > 100 µM
TGI (U251 CNS): > 100 µM
TGI (NCI-H522 lung): 59.7 µM
TGI (HT29 colon): > 100 µM
TGI (NCI-H23 lung): > 100 µM
TGI (ACHN renal): > 100 µM
TGI (KM12 colon): > 100 µM
TGI (NCI-H226 lung): > 100 µM
TGI (UACC-62 melanoma): > 100 µM
TGI (HCT-15 colon): > 100 µM
TGI (MALME-3M melanoma): > 100 µM
TGI (TK-10 renal): > 100 µM
TGI (MDA-MB-435): > 100 µM
TGI (M14 melanoma): > 100 µM
TGI (HCC-2998 colon): > 100 µM
TGI (MDA-MB-231 breast): > 100 µM
TGI (SNB-19 CNS): > 100 µM
TGI (SK-MEL-2 melanoma): > 100 µM
TGI (HOP-92 NSCLC): > 100 µM
TGI (UACC-257 melanoma): > 100 µM
TGI (MCF7 breast): > 100 µM
TGI (BT-549 breast): > 100 µM
TGI (SF-268 CNS): > 100 µM
TGI (786-0 renal): > 100 µM
TGI (RXF 393 renal): > 100 µM
TGI (MDA-N): > 100 µM
TGI (COLO 205 colon): 70 µM
TGI (EKVX NSCLC): > 100 µM
TGI (SK-MEL-28 melanoma): > 100 µM
TGI (A498 renal): > 100 µM
TGI (RPMI-8226 leukemia): > 100 µM
TGI (SN12C renal): > 100 µM
TGI (OVCAR-4 ovarian): > 100 µM
TGI (UO-31 renal): > 100 µM

COC1(c2ccc(Cl)cc2)SC=C(C)n2c1noc2=O (stereo not given)
TGI (HCT-116 colon): > 100 µM
TGI (DU-145 prostate): > 100 µM
TGI (NCI/ADR-RES ovarian): 94.9 µM
TGI (LOX IMVI melanoma): > 100 µM
TGI (MOLT-4 leukemia): > 100 µM
TGI (SR leukemia): > 100 µM
TGI (PC-3 prostate): > 100 µM
TGI (IGROV1 ovarian): > 100 µM
TGI (SW-620 colon): > 100 µM
TGI (HL-60(TB) leukemia): > 100 µM
TGI (OVCAR-5 ovarian): > 100 µM
TGI (K-562 leukemia): > 100 µM
TGI (CAKI-1 renal): > 100 µM
TGI (A549 NSCLC): > 100 µM
TGI (NCI-H460 lung): > 100 µM
TGI (SK-MEL-5 melanoma): > 100 µM
TGI (U251 CNS): > 100 µM
TGI (NCI-H522 lung): > 100 µM
TGI (HT29 colon): > 100 µM
TGI (NCI-H23 lung): > 100 µM
TGI (ACHN renal): > 100 µM
TGI (KM12 colon): > 100 µM
TGI (SF-295 CNS): > 100 µM
TGI (UACC-62 melanoma): > 100 µM
TGI (HCT-15 colon): > 100 µM
TGI (MALME-3M melanoma): > 100 µM
TGI (MDA-MB-435): > 100 µM
TGI (M14 melanoma): > 100 µM
TGI (HCC-2998 colon): > 100 µM
TGI (CCRF-CEM leukemia): > 100 µM
TGI (HS 578T breast): > 100 µM
TGI (SNB-19 CNS): > 100 µM
TGI (HOP-92 NSCLC): > 100 µM
TGI (UACC-257 melanoma): > 100 µM
TGI (MCF7 breast): > 100 µM
TGI (BT-549 breast): > 100 µM
TGI (SF-268 CNS): > 100 µM
TGI (786-0 renal): > 100 µM
TGI (RXF 393 renal): > 100 µM
TGI (MDA-N): > 100 µM
TGI (COLO 205 colon): > 100 µM
TGI (EKVX NSCLC): > 100 µM
TGI (SK-MEL-28 melanoma): > 100 µM
TGI (A498 renal): > 100 µM
TGI (RPMI-8226 leukemia): > 100 µM
TGI (OVCAR-3 ovarian): > 100 µM
TGI (SN12C renal): > 100 µM
TGI (OVCAR-4 ovarian): > 100 µM
TGI (UO-31 renal): > 100 µM

CN(C)CCCNC1=C(Cl)C(=O)c2ccccc2C1=O
GI50 (T-47D breast): 2.94 µM
TGI (T-47D breast): 9.33 µM
GI50 (HCT-116 colon): 2.28 µM
TGI (HCT-116 colon): 6.04 µM
GI50 (OVCAR-8 ovarian): 2.08 µM
TGI (OVCAR-8 ovarian): 4.39 µM
GI50 (DU-145 prostate): 1.92 µM
TGI (DU-145 prostate): 3.64 µM
GI50 (NCI/ADR-RES ovarian): 7.93 µM
TGI (NCI/ADR-RES ovarian): 31.8 µM
GI50 (LOX IMVI melanoma): 1.61 µM
TGI (LOX IMVI melanoma): 3.17 µM
GI50 (MOLT-4 leukemia): 3.02 µM
TGI (MOLT-4 leukemia): 8.27 µM
GI50 (SR leukemia): 2.8 µM
TGI (SR leukemia): 7.61 µM
GI50 (PC-3 prostate): 3.12 µM
TGI (PC-3 prostate): 13.2 µM
GI50 (IGROV1 ovarian): 2.01 µM
TGI (IGROV1 ovarian): 4.12 µM
GI50 (SW-620 colon): 1.69 µM
TGI (SW-620 colon): 3.42 µM
GI50 (HL-60(TB) leukemia): 2.54 µM
TGI (HL-60(TB) leukemia): 5.84 µM
GI50 (OVCAR-5 ovarian): 4.27 µM
TGI (OVCAR-5 ovarian): 9.63 µM
GI50 (K-562 leukemia): 2.47 µM
TGI (K-562 leukemia): 6.03 µM
GI50 (CAKI-1 renal): 7.14 µM
TGI (CAKI-1 renal): 20.7 µM
GI50 (A549 NSCLC): 16.1 µM
TGI (A549 NSCLC): 32.5 µM
GI50 (SNB-75 CNS): 1.36 µM
TGI (SNB-75 CNS): 2.67 µM
GI50 (SK-OV-3 ovarian): 15 µM
TGI (SK-OV-3 ovarian): 28.3 µM
GI50 (NCI-H460 lung): 8.61 µM
TGI (NCI-H460 lung): 25.2 µM
GI50 (SK-MEL-5 melanoma): 1.6 µM
TGI (SK-MEL-5 melanoma): 2.96 µM
GI50 (U251 CNS): 1.83 µM
TGI (U251 CNS): 3.27 µM
GI50 (NCI-H522 lung): 2.03 µM
TGI (NCI-H522 lung): 3.83 µM
GI50 (HT29 colon): 2.5 µM
TGI (HT29 colon): 5.25 µM
GI50 (NCI-H23 lung): 1.74 µM
TGI (NCI-H23 lung): 3.87 µM
GI50 (ACHN renal): 4.96 µM
TGI (ACHN renal): 9.51 µM
GI50 (KM12 colon): 5.93 µM
TGI (KM12 colon): 19.3 µM
GI50 (SF-295 CNS): 7.23 µM
TGI (SF-295 CNS): 21.4 µM
GI50 (NCI-H226 lung): 5.38 µM
TGI (NCI-H226 lung): 10.6 µM
GI50 (UACC-62 melanoma): 1.7 µM
TGI (UACC-62 melanoma): 3.19 µM
GI50 (HCT-15 colon): 1.76 µM
TGI (HCT-15 colon): 4.09 µM
GI50 (MALME-3M melanoma): 2.06 µM
TGI (MALME-3M melanoma): 3.77 µM
GI50 (TK-10 renal): 15.4 µM
TGI (TK-10 renal): 29 µM
GI50 (MDA-MB-435): 1.9 µM
TGI (MDA-MB-435): 3.64 µM
GI50 (M14 melanoma): 1.83 µM
TGI (M14 melanoma): 3.38 µM
GI50 (HCC-2998 colon): 1.96 µM
TGI (HCC-2998 colon): 3.45 µM
GI50 (MDA-MB-231 breast): 1.79 µM
TGI (MDA-MB-231 breast): 3.94 µM
GI50 (CCRF-CEM leukemia): 3.9 µM
TGI (CCRF-CEM leukemia): 14.4 µM
GI50 (HS 578T breast): 2.2 µM
TGI (HS 578T breast): 7.02 µM
GI50 (SF-539 CNS): 12.8 µM
TGI (SF-539 CNS): 27 µM
GI50 (SNB-19 CNS): 1.76 µM
TGI (SNB-19 CNS): 3.28 µM
GI50 (SK-MEL-2 melanoma): 2.11 µM
TGI (SK-MEL-2 melanoma): 4.15 µM
GI50 (HOP-92 NSCLC): 2.86 µM
TGI (HOP-92 NSCLC): 12.3 µM
GI50 (HOP-62 NSCLC): 6.23 µM
TGI (HOP-62 NSCLC): 17.5 µM
GI50 (UACC-257 melanoma): 1.82 µM
TGI (UACC-257 melanoma): 3.25 µM
GI50 (MCF7 breast): 1.61 µM
TGI (MCF7 breast): 3.53 µM
GI50 (BT-549 breast): 2.14 µM
TGI (BT-549 breast): 4.96 µM
GI50 (SF-268 CNS): 4.88 µM
GI50 (786-0 renal): 11.3 µM
TGI (786-0 renal): 24.2 µM
GI50 (RXF 393 renal): 1.69 µM
TGI (RXF 393 renal): 3.14 µM
GI50 (COLO 205 colon): 1.9 µM
TGI (COLO 205 colon): 3.45 µM
GI50 (EKVX NSCLC): 1.72 µM
TGI (EKVX NSCLC): 3.41 µM
GI50 (SK-MEL-28 melanoma): 1.88 µM
TGI (SK-MEL-28 melanoma): 3.41 µM
GI50 (A498 renal): 12.7 µM
TGI (A498 renal): 25.4 µM
GI50 (RPMI-8226 leukemia): 4.25 µM
TGI (RPMI-8226 leukemia): 21.4 µM
GI50 (OVCAR-3 ovarian): 1.69 µM
TGI (OVCAR-3 ovarian): 3.17 µM
GI50 (SN12C renal): 1.62 µM
TGI (SN12C renal): 3.12 µM
GI50 (OVCAR-4 ovarian): 1.62 µM
TGI (OVCAR-4 ovarian): 2.98 µM
GI50 (UO-31 renal): 12.4 µM
TGI (UO-31 renal): 27 µM
